Data reported in patent US12296006B2, “Anti-LY6H antibodies and antibody drug conjugates” (Bluefin BioMedicine, Inc., priority 2017, dated 2025).
pIC50: −log10 of the molar value. Where two headings read alike, the source gives them in different places.

Test system: DMS79 cells
Assay: In vitro growth inhibition and isobologram analysis (CellTiter Glo): DMS79
Type: cell-based, human
Conditions: 5 days, read-out: IC50 (growth), DMS79, alone
Experimental: SCLC cells were seeded onto 96 well plates at 3000-5,000 cells/well on the day of treatment. To distinguish synergy from additivity of the combination of LY6H-PBD with Olaparib (selleckchem, Cat #S1060), etoposide (Cell Signaling Technology, Cat #2200S) or cisplatin (Sigma, Cat #P4394), for each combination, a specific isobologram was constructed. […] Concentrations ranging from 0.0001-10 ug/ml were used for 12G7-PBD, from 0.0001 to 100 uM for olaparib, cisplatin, and etoposide. Cell viability was measured 5 days later by CellTiter Glo® Luminescent Cell viability Assay™ (Promega, Madison, WI) according to manufacturer's instructions. Each IC50 was graphically derived from the growth curve graphed by Prism™ showing percent survival vs log drug concentrations.
The 50% growth-inhibitory activity of the drug combinations was measured after 5 days of treatment. The line of additivity for the isobologram was constructed by interpolating the two points corresponding to the IC50 of the two drugs alone. Graphically, synergy, additivity, and antagonism are indicated by a point plotted below, on, or above the line of additivity, respectively.

## COc1cc([C@@H]2c3cc4c(cc3[C@@H](O[C@@H]3O[C@@H]5CO[C@@H](C)O[C@H]5[C@H](O)[C@H]3O)[C@H]3COC(=O)[C@H]23)OCO4)cc(OC)c1O [etoposide]
Homo sapiens, DMS-79, 120 h
  pIC50: 6.54

## O=C(c1cc(Cc2n[nH]c(=O)c3ccccc23)ccc1F)N1CCN(C(=O)C2CC2)CC1 [olaparib]
Homo sapiens, DMS-79, 120 h
  pIC50: 5.39

## N.N.[Cl][Pt][Cl] [cisplatin]
  pIC50: 6.51
